The record followed here is patent publication US4672068A, “Antihypertensive 1,4-dihydropyridines having a conjugated ester” (Fujirebio Kabushiki Kaisha, priority 1984, dated 1987).

This experiment relates to Male spontaneously hypertensive rats (SHR), arterial blood pressure. In words: Depressor response after intravenous administration (30 μg/kg), Table 1. It is filed as in vivo, rat. The settings on record: for Duration: '90<' means greater than 90. The method, then:
Male spontaneously hypertensive rats (SHR) which had mean arterial blood pressures higher than 140 mmHg were used for the experiments. Arterial blood pressure was measured through the catherized artery with a pressure transducer (MPU-0.5, manufactured by Nihon Kohden Kabushiki Kaisha). The catheter was inserted into the abdominal aorta via the median coccygcal artery of SHR under light ether anesthesia. The recordings were made on a rectigraph (manufactured by Sanei Sokki Kabushiki Kaisha). The 1,4-dihydropyridine derivatives prepared in the foregoing examples were administered with catheter which was inserted previously into the caudal vein or duodenum at least two hours after the operation. SHR were restrained with wire mesh cage immediately after the operation. Each derivative to be tested was dissolved in 1.5% PVP/ethanol, and then diluted with 0.9% saline or intravenous administration (30 μg/kg), or suspended in 5% gum arabic solution of intraduodenal administration (1 mg/kg).

On to `COC(=O)C1=C(C)NC(C)=C(C(=O)OCC=CC=Cc2cccc3ccccc23)C1c1cccc([N+](=O)[O-])c1` (centres unmarked) [Example 54, Methyl 5-(1-naphthyl)-2,4-pentadienyl 4-(3-nitrophenyl)-2,6-dimethyl-1,4-dihydropyridine-3,5-dicarboxylate], for which the “The time to reach the lowest BP” value is recorded as 6.0 min, the “ΔBP (Maximum depressor response)” value is 30 mmHg and the Duration is > 90 min.
For `CC1=C(C(=O)OCC=Cc2ccccc2)C(c2cccc([N+](=O)[O-])c2)C(C(=O)OCCSc2ccccc2)=C(C)N1` (centres unmarked) [Example 42, Cinnamyl 2-phenylthioethyl 4-(3-nitrophenyl)-2,6-dimethyl-1,4-dihydropyridine-3,5-dicarboxylate], in that order: 10 min, 35 mmHg and > 90 min.
As to `COCCOC(=O)C1=C(C)NC(C)=C(C(=O)OC(C)C=Cc2ccccc2)C1c1cccc([N+](=O)[O-])c1` (centres unmarked) [Example 34, 1-methyl-3-phenyl-2-propenyl 2-methoxyethyl 4-(3-nitrophenyl)-2,6-dimethyl-1,4-dihydropyridine-3,5-dicarboxylate], the “The time to reach the lowest BP” value is given as 5 min, the “ΔBP (Maximum depressor response)” value came to 45 mmHg and the Duration is given as > 230 min.
`CC=CC=CCOC(=O)C1=C(C)NC(C)=C(C(=O)OCC(C)C)C1c1cccc([N+](=O)[O-])c1` (centres unmarked) [Example 76, Isobutyl 2,4-hexadienyl 4-(3-nitrophenyl)-2,6-dimethyl-1,4-dihydropyridine-3,5-dicarboxylate]: the “The time to reach the lowest BP” value stood at 6 min and the “ΔBP (Maximum depressor response)” value is reported as 32 mmHg.
With `CC=CC=CCOC(=O)C1=C(C)NC(C)=C(C(=O)OCCC)C1c1cccc([N+](=O)[O-])c1` (centres unmarked) [Example 84, n-propyl 2,4-hexadienyl 4-(3-nitrophenyl)-2,6-dimethyl-1,4-dihydropyridine-3,5-dicarboxylate], the “The time to reach the lowest BP” value is on record as 2 min and the “ΔBP (Maximum depressor response)” value is reported as 35 mmHg.
With `CC=CC=CCOC(=O)C1=C(C)NC(C)=C(C(=O)OCC=CC=CC)C1c1cccc([N+](=O)[O-])c1` (centres unmarked) [Example 73, bis(2,4-hexadienyl) 4-(3-nitrophenyl)-2,6-dimethyl-1,4-dihydropyridine-3,5-dicarboxylate], the “The time to reach the lowest BP” value turned out to be 6.0 min, the “ΔBP (Maximum depressor response)” value was 55 mmHg and the Duration is listed as > 120 min.
Take `CC=CC=CCOC(=O)C1=C(C)NC(C)=C(C(=O)OC(C)(C)C)C1c1cccc([N+](=O)[O-])c1` (centres unmarked) [Example 75, tert-butyl 2,4-hexadienyl 4-(3-nitrophenyl)-2,6-dimethyl-1,4-dihydropyridine-3,5-dicarboxylate]: the “The time to reach the lowest BP” value came out at 1 min and the “ΔBP (Maximum depressor response)” value is on record as 28 mmHg.
On to “Benzyl 2,4-hexadienyl 4-(2-furyl)-2,6-dimethyl-1,4-dihydropyridine-3,5-dicarboxylate [Example 81]”, for which the “The time to reach the lowest BP” value is 2.0 min and the “ΔBP (Maximum depressor response)” value was determined as 25 mmHg.
For `COC(=O)C1=C(C)NC(C)=C(C(=O)OCC=Cc2ccc3ccccc3c2)C1c1cccc([N+](=O)[O-])c1` (centres unmarked) [Example 29, 3-(2-naphthyl)-2-propenyl methyl 4-(3-nitrophenyl)-2,6-dimethyl-1,4-dihydropyridine-3,5-dicarboxylate], in that order: 5.0 min and 25 mmHg.
The like results for `C=CCCOC(=O)C1=C(C)NC(C)=C(C(=O)OCC=CC=CC)C1c1cccc([N+](=O)[O-])c1` (centres unmarked) [Example 79, 3-butenyl 2,4-hexadienyl 4-(3-nitrophenyl)-2,6-dimethyl-1,4-dihydropyridine-3,5-dicarboxylate] were, in that order, 2.7 min and 55 mmHg.
The like results for `CC1=C(C(=O)OCC#Cc2ccccc2)C(c2cccc([N+](=O)[O-])c2)C(C(=O)OCC=Cc2ccccc2)=C(C)N1` (centres unmarked) [Example 46, Cinnamyl phenylpropargyl 4-(3-nitrophenyl)-2,6-dimethyl-1,4-dihydropyridine-3,5-dicarboxylate] were, in that order, 20 min and 20 mmHg.
Regarding `CC1=C(C(=O)OC(C)C)C(c2cccc([N+](=O)[O-])c2)C(C(=O)OC(C)C=Cc2ccccc2)=C(C)N1` (centres unmarked) [Example 32, 1-methyl-3-phenyl-2-propenyl isopropyl 4-(3-nitrophenyl)-2,6-dimethyl-1,4-dihydropyridine-3,5-dicarboxylate], the “The time to reach the lowest BP” value was 5 min, the “ΔBP (Maximum depressor response)” value was determined as 90 mmHg and the Duration is given as > 190 min.
As for `COCCOC(=O)C1=C(C)NC(C)=C(C(=O)OCC=CC=Cc2ccccc2)C1c1cccc([N+](=O)[O-])c1` (centres unmarked) [Example 62, 2-methoxyethyl 5-phenyl-2,4-pentadienyl 4-(3-nitrophenyl)-2,6-dimethyl-1,4-dihydropyridine-3,5-dicarboxylate], the “The time to reach the lowest BP” value was 2.0 min, the “ΔBP (Maximum depressor response)” value was determined as 60 mmHg and the Duration is recorded as > 90 min.
For the compound `COC(=O)C1=C(C)NC(C)=C(C(=O)OC(C)C=CC2=C(C)CCCC2(C)C)C1c1cccc([N+](=O)[O-])c1` (centres unmarked) [Example 74], the “The time to reach the lowest BP” value is recorded as 20 min, the “ΔBP (Maximum depressor response)” value is 75 mmHg and the Duration is > 120 min.
With `COC(=O)C1=C(C)NC(C)=C(C(=O)OCCC=Cc2ccc(C)cc2)C1c1cccc([N+](=O)[O-])c1` (centres unmarked) [Example 20, 4-(p-methylphenyl)-3-butenyl methyl 4-(3-nitrophenyl)-2,6-dimethyl-1,4-dihydropyridine-3,5-dicarboxylate], the “The time to reach the lowest BP” value came out at 1.8 min, the “ΔBP (Maximum depressor response)” value turned out to be 52.5 mmHg and the Duration is reported as 90 min.
For the compound `COC(=O)C1=C(C)NC(C)=C(C(=O)OC/C=C\C=C\c2ccccc2)C1c1cccc([N+](=O)[O-])c1` (centres unmarked) [Example 59, Methyl (2Z,4E)-5-phenyl-2,4-pentadienyl 4-(3-nitrophenyl)-2,6-dimethyl-1,4-dihydropyridine-3,5-dicarboxylate], the “The time to reach the lowest BP” value turned out to be 1.8 min and the “ΔBP (Maximum depressor response)” value came to 56.7 mmHg.
Take `COC(=O)C1=C(C)NC(C)=C(C(=O)OC(C)(C)C=Cc2ccccc2)C1c1cccc([N+](=O)[O-])c1` (centres unmarked) [Example 23, 1,1-dimethyl-3-phenyl-2-propenyl methyl 4-(3-nitrophenyl)-2,6-dimethyl-1,4-dihydropyridine-3,5-dicarboxylate]: the “The time to reach the lowest BP” value worked out at 2.2 min and the “ΔBP (Maximum depressor response)” value was 48 mmHg.
Consider `COC(=O)C1=C(C)NC(C)=C(C(=O)OCC=CC=Cc2ccc3ccccc3c2)C1c1cccc([N+](=O)[O-])c1` (centres unmarked) [Example 53, Methyl 5-(2-naphthyl)-2,4-pentadienyl 4-(3-nitrophenyl)-2,6-dimethyl-1,4-dihydropyridine-3,5-dicarboxylate], for which the “The time to reach the lowest BP” value is listed as 18 min, the “ΔBP (Maximum depressor response)” value was found to be 25 mmHg and the Duration was determined as 90 min.
For `COC(=O)C1=C(C)NC(C)=C(C(=O)OCC=CC=Cc2ccco2)C1c1cccc([N+](=O)[O-])c1` (centres unmarked) [Example 52, Methyl 5-(2-furyl)-2,4-pentadienyl 4-(3-nitrophenyl)-2,6-dimethyl-1,4-dihydropyridine-3,5-dicarboxylate], in that order: 2.0 min, 55 mmHg and > 90 min.
`CC=CC=CCOC(=O)C1=C(C)NC(C)=C(C(=O)OC(C)C)C1c1cccc([N+](=O)[O-])c1` (centres unmarked) [Example 68, Isopropyl 2,4-hexadienyl 4-(3-nitrophenyl)-2,6-dimethyl-1,4-dihydropyridine-3,5-dicarboxylate]: the “The time to reach the lowest BP” value was 1.4 min, the “halflife (number in parentheses in Duration column)” value amounted to 13 min, the “ΔBP (Maximum depressor response)” value worked out at 60 mmHg and the Duration is on record as > 90 min.
Regarding `CCSCCOC(=O)C1=C(C)NC(C)=C(C(=O)OCC=Cc2ccccc2)C1c1cccc([N+](=O)[O-])c1` (centres unmarked) [Example 41, cinnamyl 2-ethylthioethyl 4-(3-nitrophenyl)-2,6-dimethyl-1,4-dihydropyridine-3,5-dicarboxylate], the “The time to reach the lowest BP” value is 5 min, the “ΔBP (Maximum depressor response)” value is recorded as 28 mmHg and the Duration is > 120 min.
For `COC(=O)C1=C(C)NC(C)=C(C(=O)OC(C=Cc2ccccc2)C(C)C)C1c1cccc([N+](=O)[O-])c1` (centres unmarked) [Example 8, 1-isopropyl-3-phenyl-2-propenyl methyl 4-(3-nitrophenyl)-2,6-dimethyl-1,4-dihydropyridine-3,5-dicarboxylate], in that order: 25 min, 87 mmHg and > 180 min.
As to `C=CCOC(=O)C1=C(C)NC(C)=C(C(=O)OCC=CC=CC)C1c1cccc([N+](=O)[O-])c1` (centres unmarked) [Example 80, Allyl 2,4-hexadienyl 4-(3-nitrophenyl)-2,6-dimethyl-1,4-dihydropyridine-3,5-dicarboxylate], the “The time to reach the lowest BP” value came out at 1.4 min and the “ΔBP (Maximum depressor response)” value amounted to 40 mmHg.
As for `COC(=O)C1=C(C)NC(C)=C(C(=O)OCCC=Cc2ccsc2)C1c1cccc([N+](=O)[O-])c1` (centres unmarked) [Example 26, 4-(3-thienyl)-3-butenyl methyl 4-(3-nitrophenyl)-2,6-dimethyl-1,4-dihydropyridine-3,5-dicarboxylate], the “The time to reach the lowest BP” value turned out to be 1.5 min and the “ΔBP (Maximum depressor response)” value came out at 47 mmHg.
